Laboratory results from patent publication US20230116602A1, “MCL1 INHIBITORS AND USES THEREOF” (California Institute of Technology, priority 2019, published 2023).
pIC50, pKd: −log10 of the molar value.

Columns and labels:
[1] = molecular target: MCL1 (Homo sapiens, UniProt Q07820); experiment: MCL1 affinity assay (competition binding, qPCR readout); details: recombinant MCL1, 11-point 3-fold dilution series
Method: Recombinant MCL1, BCL2 and BCXL proteins were prepared in either an E. coli host derived from the BL21 strain or in HEK-293 cells. The recombinant proteins were subsequently tagged with DNA for qPCR detection. Streptavidin-coated magnetic beads were treated for 30 minutes at room temperature with the respective biotinylated peptide ligands for each recombinant protein to generate affinity resins for the assays. The liganded beads were blocked with excess biotin and washed with blocking buffer (SeaBlock (Pierce), 1% BSA, 0.05% Tween 20, 1 mM DTT) to remove unbound ligand and to reduce nonspecific binding. Binding reactions were assembled by combining recombinant protein, liganded affinity beads, and test compounds in 1× binding buffer (20% SeaBlock, 0.17×PBS, 0.05% Tween 20, 6 mM DTT). Test compounds were prepared as 111X stocks in 100% DMSO. The compounds were then diluted directly into the assays such that the final concentration of DMSO was 0.9%. The assay plates were incubated at room temperature with shaking for 1 hour and the affinity beads were washed with wash buffer (1×PBS, 0.05% Tween 20). The beads were then re-suspended in elution buffer (1×PBS, 0.05% Tween 20, 0.5 μM non-biotinylated affinity ligand) and incubated at room temperature with shaking for 30 minutes. The recombinant protein concentration in the eluates was measured by qPCR. Kds were determined using an 11-point 3-fold compound dilution series with three DMSO control points.

[2] = test system: drug-resistant cell lines of Table 3; experiment: Cell line growth retardation assay, resistant cohort; assay type: cell-based, Human; details: Homo sapiens, 144 h; arithmetic mean of IC50s over the resistant cohort of Table 3, 6 days growth; read-out: AvgRes IC50
Method: (§1) Cells were seeded at densities of 1,000-5,000 cells per well in 48-well tissue culture plates. After a 24 h rest period, cells were treated with compound at 10 μM, 1 μM, […], 0.08 μM, 0.016 μM, and 0.0032 μM. A group of cells were treated with the vehicle in which the compound was prepared and served as a control. Prior to treatment, cells were counted and this count was used as a baseline for the calculation of growth inhibition. The cells were grown in the presence of compounds for 6 days and were counted on day 6. All cell counting was performed using a Synentec Cellavista plate imager. Growth inhibition was calculated as a ratio of cell population doublings in the presence of compound versus the absence of compound. […] IC50 values for each compound were calculated by fitting curves to data points from each dose-response assay using the Proc NLIN function in SAS for Windows version 9.2 (SAS Institute, Inc.).
(§2) Human cancer cell lines were grouped as “sensitive” or “resistant” to MCL1 inhibition based on whether their growth was retarded by AMG-176 (i.e., (1′S,11R,12S,14E,16S,16aR,18aR)-6′-Chloro-3′,4′,12,13,16,16a,17,18,18a,19-decahydro-16-methoxy-11,12-dimethyl-,Spiro[5,7-etheno-1H,11H-cyclobut[i][1,4]oxazepino[3,4-f][1,2,7]thiadiazacyclohexadecine-2(3H),1′(2′H)-naphthalen]-8(9H)-one 10,10-dioxide) or MIK665 (i.e., (R)-2-((5-(3-chloro-2-methyl-4-(2-(4-methylpiperazin-1-yl)ethoxy)phenyl)-6-(4-fluorophenyl)thieno[2,3-d]pyrimidin-4-yl)oxy)-3-(2-((2-(2-methoxyphenyl)pyrimidin-4-yl)methoxy)phenyl)propanoic acid) (data not shown; see Table 3). These sensitive and resistant cohorts were interrogated for response to each compound, and IC50S were calculated for each cell line using the same technique described above. Average IC50S for the sensitive (“AvgSen IC50”) and resistant (“AvgRes IC50”) cohorts were calculated as arithmetic means of the group, and fold differences (“Fold Diff”) between the resistant and sensitive cohorts were calculated by diving the average IC50 for the resistant cohort by the average IC50 for the sensitive cohort. “A” represents an IC50 of 1 μM or less, “B” represents an IC50 of greater than 1 μM to 5 μM, “C” represents an IC50 of greater than 5 μM, “+” represents a fold difference of 10 or more, and “−” represents a fold difference less than 10.

[3] = test system: drug-sensitive cell lines of Table 3; experiment: Cell line growth retardation assay, sensitive cohort; assay type: cell-based, Human; details: for pIC50: Homo sapiens, 144 h, arithmetic mean of IC50s over the sensitive cohort of Table 3, 6 days growth, read-out: AvgSen IC50; for Fold Diff: average IC50 of resistant cohort divided by average IC50 of sensitive cohort
Method: as §1, §2

MCL1, sequence (Q07820 whole entry): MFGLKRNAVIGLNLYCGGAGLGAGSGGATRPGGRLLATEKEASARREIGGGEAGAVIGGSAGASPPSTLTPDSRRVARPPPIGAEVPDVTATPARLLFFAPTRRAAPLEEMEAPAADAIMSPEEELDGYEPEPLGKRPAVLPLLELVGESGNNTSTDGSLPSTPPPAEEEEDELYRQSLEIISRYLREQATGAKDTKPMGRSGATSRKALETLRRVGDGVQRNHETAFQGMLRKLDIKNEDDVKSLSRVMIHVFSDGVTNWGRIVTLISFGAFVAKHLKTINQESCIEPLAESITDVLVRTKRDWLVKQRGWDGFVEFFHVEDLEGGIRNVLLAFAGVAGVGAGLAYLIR

Compound	pKd [1]	pIC50 [2]	pIC50 [3]	Fold Diff [3]
COc1ccccc1-c1nccc(COc2ccccc2C[C@@H](Oc2nsc3cnc(-c4ccc(F)cc4)c(-c4ccc(OCCC5CCN(C)CC5)c(Cl)c4C)c23)C(=O)O)n1 (atropisomer, axis not shown) [Compound 81]	≥ 7.00	< 5.30	5.30 to 6.00	− (“−” represents a fold difference less than 10)
COc1ccccc1-c1nccc(COc2ccccc2C[C@@H](Oc2nsc3cnc(-c4cccc(F)c4)c(-c4ccc(OCCN5CCN(C)CC5)c(Cl)c4C)c23)C(=O)O)n1 (atropisomer, axis not shown) [Compound 35]	≥ 7.00	< 5.30	≥ 6.00	+ (“+” represents a fold difference of 10 or more)
COc1ccccc1-c1nccc(COc2ccccc2C[C@@H](Oc2nsc3cnc(C4CC4)c(-c4ccc(OCCN(C)C)c(Cl)c4C)c23)C(=O)O)n1 (atropisomer, axis not shown) [Compound 56]	≥ 7.00	< 5.30	≥ 6.00	+ (“+” represents a fold difference of 10 or more)
Cn1nc(-c2cc(CC3CCC3)c3c(O[C@H](Cc4ccccc4OCc4ccnn4CC(F)(F)F)C(=O)O)nsc3c2)c2ccc(Cl)cc21 [Compound 96]	< 5.82	< 5.30	< 5.30	− (“−” represents a fold difference less than 10)
Cc1c(-c2c(C3CCC3)ncc3snc(O[C@H](Cc4ccccc4OCc4ccnc(C5CCC(F)(F)CC5)n4)C(=O)O)c23)ccc(OCCN2CCN(C)CC2)c1Cl (atropisomer, axis not shown) [Compound 110]	≥ 7.00	< 5.30	≥ 6.00	+ (“+” represents a fold difference of 10 or more)
COc1ccccc1-c1nccc(COc2ccccc2C[C@@H](Oc2nsc3cnc(-c4ccc(F)c(F)c4)c(-c4ccc(OCCN5CCN(C)CC5)c(Cl)c4C)c23)C(=O)O)n1 (atropisomer, axis not shown) [Compound 85]	≥ 7.00	< 5.30	≥ 6.00	+ (“+” represents a fold difference of 10 or more)
COc1cccc(-c2ncc3snc(O[C@H](Cc4ccccc4OCc4ccnc(-c5ccccc5OC(F)F)n4)C(=O)O)c3c2-c2ccc(OCCN3CCN(C)CC3)c(Cl)c2C)c1 (atropisomer, axis not shown) [Compound 66]	≥ 7.00	< 5.30	≥ 6.00	+ (“+” represents a fold difference of 10 or more)
COc1cccc(-c2ncc3snc(O[C@H](Cc4ccccc4OCc4ccnc(-c5cc(F)ccc5OC)n4)C(=O)O)c3c2-c2ccc(OCCN3CCN(C)CC3)c(Cl)c2C)c1 (atropisomer, axis not shown) [Compound 67]	≥ 7.00	< 5.30	≥ 6.00	+ (“+” represents a fold difference of 10 or more)
CC(=O)N1CCN(c2ccc(-c3nccc(COc4ccccc4C[C@@H](Oc4nsc5cnc(C6CCC6)c(-c6ccc(OCCN7CCN(C)CC7)c(Cl)c6C)c45)C(=O)O)n3)cc2)CC1 (atropisomer, axis not shown) [Compound 119]	≥ 7.00	< 5.30	≥ 6.00	+ (“+” represents a fold difference of 10 or more)
CCn1cc(-c2ncc3snc(O[C@H](Cc4ccccc4OCc4ccnc(-c5ccccc5OC)n4)C(=O)O)c3c2-c2ccc(OCCN3CCN(C)CC3)c(Cl)c2C)cn1 (atropisomer, axis not shown) [Compound 75]	6.30 to 7.00	< 5.30	< 5.30	− (“−” represents a fold difference less than 10)
Cc1c(-c2cc(-c3nn(C)c4cc(Cl)ccc34)cc3snc(O[C@H](Cc4ccccc4OCc4ccnn4CC(F)(F)F)C(=O)O)c23)ccc(OCCN2CCN(C)CC2)c1Cl [Compound 94]	< 5.82	< 5.30	< 5.30	− (“−” represents a fold difference less than 10)
Cc1cc(-c2nccc(COc3ccccc3C[C@@H](Oc3nsc4cnc(C5CCC5)c(-c5ccc(OCCN6CCN(C)CC6)c(Cl)c5C)c34)C(=O)O)n2)ccc1S(=O)(=O)N1CCCC1 (atropisomer, axis not shown) [Compound 115]	6.30 to 7.00	< 5.30	5.30 to 6.00	− (“−” represents a fold difference less than 10)
Cc1c(-c2c(C3CCC3)ncc3snc(O[C@H](Cc4ccccc4OCc4ccnc(-c5cccc(N6CCOCC6)c5)n4)C(=O)O)c23)ccc(OCCN2CCN(C)CC2)c1Cl (atropisomer, axis not shown) [Compound 112]	≥ 7.00	< 5.30	≥ 6.00	+ (“+” represents a fold difference of 10 or more)
Cc1c(-c2c(C3CCC3)ncc3snc(O[C@H](Cc4ccccc4OCc4ccnc(C5CCC5)n4)C(=O)O)c23)ccc(OCCN2CCN(C)CC2)c1Cl (atropisomer, axis not shown) [Compound 104]	6.30 to 7.00	< 5.30	5.30 to 6.00	− (“−” represents a fold difference less than 10)
Cc1c(-c2c(C3CCC3)ncc3snc(O[C@H](Cc4ccccc4OCc4ccnc(C5CC5)n4)C(=O)O)c23)ccc(OCCN2CCN(C)CC2)c1Cl (atropisomer, axis not shown) [Compound 109]	6.30 to 7.00	< 5.30	5.30 to 6.00	− (“−” represents a fold difference less than 10)
Cc1c(-c2cc(-n3c(=O)n(C)c4cc(Cl)ccc43)cc3snc(O[C@H](Cc4ccccc4OCc4ccnn4CC(F)(F)F)C(=O)O)c23)ccc(OCCN2CCN(C)CC2)c1Cl [Compound 99]	< 5.82	< 5.30	< 5.30	− (“−” represents a fold difference less than 10)
COc1ccccc1C[C@@H](Oc1nsc2cnc(-c3cccc(F)c3)c(-c3ccc(OCCN4CCN(C)CC4)c(Cl)c3C)c12)C(=O)O (atropisomer, axis not shown) [Compound 93]	6.30 to 7.00	< 5.30	5.30 to 6.00	− (“−” represents a fold difference less than 10)
COc1ccccc1-c1nccc(COc2ccccc2C[C@@H](Oc2nsc3cnc(-c4cnn(CC(C)C)c4)c(-c4ccc(OCCN5CCN(C)CC5)c(Cl)c4C)c23)C(=O)O)n1 (atropisomer, axis not shown) [Compound 79]	5.82 to 6.30	5.30 to 6.00	≥ 6.00	− (“−” represents a fold difference less than 10)
COc1ccccc1-c1nccc(COc2ccccc2C[C@@H](Oc2nsc3cnc(-c4ccc(F)c(Cl)c4)c(-c4ccc(OCCN5CCN(C)CC5)c(Cl)c4C)c23)C(=O)O)n1 (atropisomer, axis not shown) [Compound 88]	≥ 7.00	< 5.30	≥ 6.00	+ (“+” represents a fold difference of 10 or more)
COc1ccccc1-c1nccc(COc2ccccc2C[C@@H](Oc2nsc3cc(-c4nn(C)c5cc(Cl)ccc45)cc(-c4ccc(OCCN5CCN(C)CC5)c(Cl)c4C)c23)C(=O)O)n1 [Compound 97]	5.82 to 6.30	< 5.30	5.30 to 6.00	− (“−” represents a fold difference less than 10)
